Data on 33 molecules can be found in ChEMBL document CHEMBL3734741, “Pyrazole clubbed triazolo[1,5-a]pyrimidine hybrids as an anti-tubercular agents: Synthesis, in vitro screening and molecular docking study” (Bioorg Med Chem, 2015).

For data set [1], the system named is Mycobacterium tuberculosis. Kind of data set: Antituberculosis activity against Mycobacterium tuberculosis H37Rv MTCC 300 at 6.25 ug/ml after 4 weeks by Lowenstein-Jensen medium method. It is filed as functional. Particulars: H37Rv MTCC 300, 672 h.
A short description of data set [2]: Inhibition of Mycobacterium tuberculosis InhA assessed as conversion of crotonoyl-CoA to butyryl-CoA by spectrophotometric method.
The nature of data set [3]: Cytotoxicity against African green monkey Vero cells after 72 hrs by MTT assay. The format is cell-based. Particulars: chlorocebus sabaeus. (In general: Tetrazolium dyes change colour on reduction, which living cells bring about.)
Data set [4] is described as follows: Selectivity index, ratio of CC50 for African green monkey Vero cells to IC50 Mycobacterium tuberculosis InhA. The format is functional.
Data set [5] concerns Mycobacterium tuberculosis. Kind of data set: Antituberculosis activity against Mycobacterium tuberculosis H37Rv MTCC 300 after 4 weeks by Lowenstein-Jensen medium method. It is filed as functional. Conditions: H37Rv MTCC 300, 672 h.

Converted amounts (≈) assume the structure as drawn.

As for `CC(C)C1=C(C(=O)Nc2ccccn2)C(c2cn(-c3ccccc3)nc2-c2ccc(Cl)cc2)n2ncnc2N1` (stereo not given), 6.25 µg/mL produced 81% inhibition in data set [1].

`Cc1ccc(NC(=O)C2=C(C(C)C)Nc3ncnn3C2c2cn(-c3ccccc3)nc2-c2ccc(Cl)cc2)nc1` (stereo not given): the inhibition at 6.25 µg/mL in data set [1] was determined as 76%.

In data set [1], `Cc1ccc(-c2nn(-c3ccccc3)cc2C2C(C(=O)Nc3ccc(Br)cn3)=C(C(C)C)Nc3ncnn32)cc1` (stereo not given) returned an inhibition at 6.25 µg/mL of 66%.

In data set [1], `CC(C)C1=C(C(=O)Nc2ccc(Br)cn2)C(c2cn(-c3ccccc3)nc2-c2ccc(F)cc2)n2ncnc2N1` (stereo not given) registered an inhibition at 6.25 µg/mL of 88%.

In data set [1], `CC1=C(C(=O)Nc2ccccn2)C(c2cn(-c3ccccc3)nc2-c2ccc([N+](=O)[O-])cc2)n2ncnc2N1` (stereo not given) registered an inhibition at 6.25 µg/mL of 84%.

With `CC1=C(C(=O)Nc2ccccn2)C(c2cn(-c3ccccc3)nc2-c2ccc(Cl)cc2)n2ncnc2N1` (stereo not given), the inhibition at 6.25 µg/mL in data set [1] was determined as 84%.

For `CC(C)C1=C(C(=O)Nc2ccc(Br)cn2)C(c2cn(-c3ccccc3)nc2-c2ccc([N+](=O)[O-])cc2)n2ncnc2N1` (stereo not given), the inhibition at 6.25 µg/mL in data set [1] came to 78%.

Regarding `CC(C)C1=C(C(=O)Nc2ccccn2)C(c2cn(-c3ccccc3)nc2-c2ccc(F)cc2)n2ncnc2N1` (stereo not given), the inhibition at 6.25 µg/mL in data set [1] amounted to 84%.

In data set [1], `CC1=C(C(=O)Nc2ccccn2)C(c2cn(-c3ccccc3)nc2-c2ccc(C)cc2)n2ncnc2N1` (stereo not given) gave an inhibition at 6.25 µg/mL of 56%.

Molecule `CC(C)C1=C(C(=O)Nc2ccc(Br)cn2)C(c2cn(-c3ccccc3)nc2-c2ccccc2)n2ncnc2N1` (stereo not given) registered an inhibition at 6.25 µg/mL in data set [1] of 54%.

On to `Cc1ccc(NC(=O)C2=C(C(C)C)Nc3ncnn3C2c2cn(-c3ccccc3)nc2-c2ccc(F)cc2)nc1` (stereo not given), for which, in data set [1], the inhibition at 6.25 µg/mL was found to be 82%.

The molecule `Cc1ccc(NC(=O)C2=C(C(C)C)Nc3ncnn3C2c2cn(-c3ccccc3)nc2-c2ccccc2)nc1` (stereo not given) came in with an inhibition at 6.25 µg/mL in data set [1] of 42%.

For the molecule `CC1=C(C(=O)Nc2ccccn2)C(c2cn(-c3ccccc3)nc2-c2ccccc2)n2ncnc2N1` (stereo not given), the inhibition at 6.25 µg/mL in data set [1] worked out at 72%.

In data set [1], `Cc1ccc(NC(=O)C2=C(C(C)C)Nc3ncnn3C2c2cn(-c3ccccc3)nc2-c2ccc([N+](=O)[O-])cc2)nc1` (stereo not given) displayed an inhibition at 6.25 µg/mL of 68%.

Turning to `CC1=C(C(=O)Nc2ccc(Br)cn2)C(c2cn(-c3ccccc3)nc2-c2ccccc2)n2ncnc2N1` (stereo not given), in data set [2], the IC50 came out at 0.85 µg/mL (≈ 1.54 µM). The molecule also showed a CC50 at 72 h in data set [3] of 25 µg/mL (≈ 45.2 µM). For the same molecule, the inhibition at 6.25 µg/mL in data set [1] was 95%. Further, the “Ratio CC50/IC50” value in data set [4] is given as 29.41. The MIC in data set [5] was found to be 3.13 µg/mL (≈ 5.66 µM).

In the case of `Cc1ccc(-c2nn(-c3ccccc3)cc2C2C(C(=O)Nc3ccccn3)=C(C(C)C)Nc3ncnn32)cc1` (stereo not given), at 6.25 µg/mL the inhibition in data set [1] was 55%.

`Cc1ccc(-c2nn(-c3ccccc3)cc2C2C(C(=O)Nc3ccc(C)cn3)=C(C(C)C)Nc3ncnn32)cc1` (stereo not given) yielded an inhibition at 6.25 µg/mL in data set [1] of 46%.

`CC1=C(C(=O)Nc2ccc(Br)cn2)C(c2cn(-c3ccccc3)nc2-c2ccc(Cl)cc2)n2ncnc2N1` (stereo not given): in data set [2], the IC50 came out at 0.11 µg/mL (≈ 0.187 µM). It took 20 µg/mL (≈ 34 µM) to reach half-maximal cytotoxicity in data set [3] (CC50 at 72 h). Testing at 6.25 µg/mL in data set [1] gave an inhibition of 98%. For the same molecule, in data set [4], the “Ratio CC50/IC50” value turned out to be 181.81. Further, the MIC in data set [5] stood at 0.78 µg/mL (≈ 1.33 µM).

For `CC1=C(C(=O)Nc2ccc(Br)cn2)C(c2cn(-c3ccccc3)nc2-c2ccc(F)cc2)n2ncnc2N1` (stereo not given), the IC50 in data set [2] came to 0.11 µg/mL (≈ 0.193 µM). This molecule also returned a CC50 at 72 h in data set [3] of 20 µg/mL (≈ 35 µM). Moreover, the inhibition at 6.25 µg/mL in data set [1] was 99%. Further, the “Ratio CC50/IC50” value in data set [4] was found to be 181.81. Also, in data set [5], it took 0.39 µg/mL (≈ 0.683 µM) to inhibit growth (MIC).

In the case of `CC1=C(C(=O)Nc2ccccn2)C(c2cn(-c3ccccc3)nc2-c2ccc(F)cc2)n2ncnc2N1` (stereo not given), the IC50 in data set [2] amounted to 0.16 µg/mL (≈ 0.325 µM). The same molecule showed a CC50 at 72 h in data set [3] of 20 µg/mL (≈ 40.6 µM). The inhibition at 6.25 µg/mL in data set [1] amounted to 99%. Moreover, the “Ratio CC50/IC50” value in data set [4] was 125. Moreover, the MIC in data set [5] worked out at 0.78 µg/mL (≈ 1.58 µM).

`CC1=C(C(=O)Nc2ccc(C)cn2)C(c2cn(-c3ccccc3)nc2-c2ccc(Cl)cc2)n2ncnc2N1` (stereo not given) showed an inhibition at 6.25 µg/mL in data set [1] of 79%.

In data set [1], `CC1=C(C(=O)Nc2ccc(C)cn2)C(c2cn(-c3ccccc3)nc2-c2ccc(F)cc2)n2ncnc2N1` (stereo not given) displayed an inhibition at 6.25 µg/mL of 86%.

For `CC1=C(C(=O)Nc2ccc(Br)cn2)C(c2cn(-c3ccccc3)nc2-c2ccc([N+](=O)[O-])cc2)n2ncnc2N1` (stereo not given), the IC50 in data set [2] was found to be 0.28 µg/mL (≈ 0.468 µM). The same molecule had a CC50 at 72 h in data set [3] of 25 µg/mL (≈ 41.8 µM). The same molecule gave an inhibition at 6.25 µg/mL in data set [1] of 96%. For the same molecule, in data set [4], the “Ratio CC50/IC50” value came out at 89.28. The same molecule had an MIC in data set [5] of 1.56 µg/mL (≈ 2.61 µM).

`CC1=C(C(=O)Nc2ccc(Br)cn2)C(c2cn(-c3ccccc3)nc2-c2ccc(C)cc2)n2ncnc2N1` (stereo not given) showed an inhibition at 6.25 µg/mL in data set [1] of 64%.

`CC(C)C1=C(C(=O)Nc2ccc(Br)cn2)C(c2cn(-c3ccccc3)nc2-c2ccc(Cl)cc2)n2ncnc2N1` (stereo not given) registered an inhibition at 6.25 µg/mL in data set [1] of 84%.

In the case of `CC(C)C1=C(C(=O)Nc2ccccn2)C(c2cn(-c3ccccc3)nc2-c2ccc([N+](=O)[O-])cc2)n2ncnc2N1` (stereo not given), the inhibition at 6.25 µg/mL in data set [1] was found to be 74%.

As to `CC1=C(C(=O)Nc2ccc(C)cn2)C(c2cn(-c3ccccc3)nc2-c2ccc([N+](=O)[O-])cc2)n2ncnc2N1` (stereo not given), in data set [1], 6.25 µg/mL produced 68% inhibition.

In turn, `CC1=C(C(=O)Nc2ccc(C)cn2)C(c2cn(-c3ccccc3)nc2-c2ccc(C)cc2)n2ncnc2N1` (stereo not given) displayed an inhibition at 6.25 µg/mL in data set [1] of 49%.

`CC(C)C1=C(C(=O)Nc2ccccn2)C(c2cn(-c3ccccc3)nc2-c2ccccc2)n2ncnc2N1` (stereo not given) showed an inhibition at 6.25 µg/mL in data set [1] of 45%.

In data set [1], `CC1=C(C(=O)Nc2ccc(C)cn2)C(c2cn(-c3ccccc3)nc2-c2ccccc2)n2ncnc2N1` (stereo not given) showed an inhibition at 6.25 µg/mL of 66%.

Regarding `CC[C@@H](CO)NCCN[C@@H](CC)CO` [ETHAMBUTOL], the inhibition at 6.25 µg/mL in data set [1] amounted to 99%. The MIC in data set [5] came to 3.12 µg/mL (≈ 15.3 µM).

Consider `NNC(=O)c1ccncc1` [ISONIAZID], for which the MIC in data set [5] was 0.3 µg/mL (≈ 2.19 µM).

`CO[C@H]1/C=C/O[C@@]2(C)Oc3c(C)c(O)c4c(O)c(c(/C=N/N5CCN(C)CC5)c(O)c4c3C2=O)NC(=O)/C(C)=C\C=C\[C@H](C)[C@H](O)[C@@H](C)[C@@H](O)[C@@H](C)[C@H](OC(C)=O)[C@@H]1C` [RIFAMPIN] had an inhibition at 6.25 µg/mL in data set [1] of 99%. The MIC in data set [5] is 0.5 µg/mL (≈ 0.608 µM).

The inhibition is the change of the read-out against control, counted positive when it falls. What is called IC50 is the point on the concentration scale where inhibition reaches its midpoint. A word on the CC50: it is the concentration at which the toxic effect on the cells reaches its halfway point. As a reminder, the MIC is the smallest concentration in the dilution series that meets the test's criterion for growth inhibition.
